Data set [1] has as its system K562-DR cells. Description: MTT growth inhibition assay, K562-DR. The format is cell-based, human. The note with it: IC50 K562-DR / IC50 K562. As to the method: K562, K562-DR, HepG2, HepG2-DR were cultured in RPMI-1640 medium containing 10% fetal bovine serum and 100 U/mL, antibiotics. […] Drug test: […] New calorimetric cytotoxicity assay for anticancer-drug screening. […] Mosmann T. Rapid colorimetric assay for cellular growth and survival: application to proliferation and cytotoxicity assays. […] Gerlier D, Thomasset N. […] Each growth inhibition experiment must be repeated three times and results are expressed as mean±standard deviation (SD). Solvents and media were included as blank control. In MTT assay, cells are inoculated at 5000 cells/well and are incubated overnight. Drug treatment lasts for 68 h. MTT (5 mg/ml in PBS) is added to each well (1:10 dilution). […] Viable cell number is estimated by correlating to OD at 570 nm.
On the technique in general: Tetrazolium dyes change colour on reduction, which living cells bring about.

Data set [2] relates to K562-DR cells. Description: Reversal of multidrug resistance (fold decrease of anticancer drug IC50), K562-DR. The format is cell-based, human. The note with it: 4 μM test compound. Here is the method: (§1) Cells and cell culture: cell lines used in the experiments are human hepatoma cell line (HepG2), human leukemia cell line (K562), human epidermoid carcinoma cell line (KB-3-1) and their multidrug resistant sublines HepG2-DR, K562-DR. and KB V1. The culture conditions for all cells are following: at 37° C. and 5% CO2), KB-3-1 and KBV1 were cultured in MEM medium containing 10% fetal bovine serum and 100 U/mL antibiotics; K562, K562-DR, HepG2, HepG2-DR were cultured in RPMI-1640 medium containing 10% fetal bovine serum and 100 U/mL, antibiotics. For maintaining the phenotypic characteristics of multidrug resistance, 1.2 μM and 0.1 μM doxorubicin were respectively added into the mediums of HepG2-DR and K562-DR; 200 ng/mL vinblastine was added into the medium of KBV1. Drug resistant cells were grown in drug free medium for at least 7 days before test.
(§2) Each growth inhibition experiment must be repeated three times and results are expressed as mean±standard deviation (SD). Solvents and media were included as blank control.
In MTT assay, cells are inoculated at 5000 cells/well and are incubated overnight. Drug treatment lasts for 68 h. MTT (5 mg/ml in PBS) is added to each well (1:10 dilution). After incubation for 4 hour at 37° C., 5% CO2, 100 μl of stop solution (10% SDS-50% isobutanol-0.01N HCl) is added to each well to stop the reaction. Viable cell number is estimated by correlating to OD at 570 nm.
(§3) 1. Materials and methods: the same with I.
(§4) To evaluate the multidrug resistance reversing ability of (±)-Praeruptorin A derivatives, IC50 values of anticancer drugs in the presence and absence of cis-DMDCK, cis-DMDBK, trans-DMDCK, or trans-DMDBK at certain concentration were determined in HepG2-DR, K562-DR and KB V1 cells. The fold decrease of IC50 value of an anticancer drug in certain cell line achieved by a test compound is calculated (fold decrease=IC50 of an anti-tumor drug alone/IC50 of the anti-tumor drug in combination with the test compound) and is used for evaluating the ability of the test compound to reduce drug resistance. The larger the fold decrease value is, the stronger its ability to reverse drug resistance is. The results were average values of three repetitive tests. Verapamil (P-glycoprotein modulator) is the positive control.

The test system of a further data set is KB V1 cells. Nature of the data set: Reversal of multidrug resistance (fold decrease of anticancer drug IC50), KB V1. The format is cell-based, human. As to the method: as §1, §2
In SRB assay, cells are inoculated at 5000 cells/well in a 96-well microplate and incubated overnight to let cells adhere. Drug treatment lasts for 72 hours and cells are fixed for 1 hour at 4° C. with 50 μl ice-cold 15% trichloroacetic acid and washed with triple-distilled water 5 times. Cellular protein is stained by adding 50 μl of 0.4% SRB in 1% acetic acid for 10 minutes, rinsed with 1% acetic acid 5 times and air-dried. The protein-bound dye is dissolved in 100 μl per well of 10 mM Tris base (pH 10.5). The color intensity of SRB, which positively correlate to cell number in preliminary experiments, is estimated at OD 515 nm.
as §3, §4

In data set [3] the test system is P-gp. Nature of the data set: Immunoblotting analysis of P-gp expression, KB V1. It counts as cell-based, human. The note with it: KB V1, 4 μM, 72 hours. As to the method:
Immunoblotting analysis of P-gp expression: cells were treated with 4 μM of cis-DMDCK, 4 μM of cis-DMDBK, 4 μM of trans-DMDCK, or 4 μM of trans-DMDBK for 72 hours. Treated cells were collected and mixed well in ice-cold lysis buffer (50 mM Tris pH7.4, 100 mM NaCl, 2 mM EDTA, 1% sodium deoxycholate, 0.1% SDS, 1% triton X-100, 2 mM PMSF, 1% aprotinin) for 30 minutes and then centrifuged to get the total protein. Protein concentration was determined using Bradford assay. In this experiment, 50 μg total protein was separated by 8% SDS-PAGE and electro-transferred to nitrocellulose membranes. The membrane was blocked by 5% skim milk/0.1% Tween-20/TBS (10 mM Tris pH7.5, 100 mM NaCl), and then incubated with anti-P-pg antibody for 1 hour, followed by horseradish-peroxidase-conjugated secondary antibody for another 1 hour. Protein bands were detected by the ECL method.
On the technique in general: Immunoblotting shows a protein as a band on a membrane.

Data set [4] concerns the target P-gp (Homo sapiens, UniProt P08183). Description: Hoechst 33342 efflux assay, HepG2-DR. The format is cell-based. Set-up: KB V1, HepG2-DR and K562-DR cell expressed P-gp at high level when compared with parental drug sensitive cells thereof; endogenous in cells; host or cells: HepG2-DR (doxorubicin-maintained multidrug resistant subline of HepG2). Here is the method: Relative amount of intracellular H33342 (%)=100×(FS−F0)/F0
(Fs: cellular fluorescence intensity of H33342 in the presence of a testing drug; F0: cellular fluorescence intensity of H33342 in the absence of any P-gp modulator).
1.4 Hoechst 33342 transport test: HepG2-DR Cells (5×10^4 cells in 100 μL, medium per well) were seeded in 96-well plate and incubated overnight to permit cell attachment. The medium was replaced with fresh medium containing 20 μg/mL Hoechst 33342 and cells were incubated at 37° C. for 1 hour. Cells were then washed with 100 μL ice-cold PBS twice. New medium containing the test compound of various concentrations was added and cells were further incubated at 37° C. for 1 hour. Cells were washed with ice-cold PBS twice and cellular fluorescence intensity was measured at λex=365 nm (λem=460 nm) by a BMG FLUOstar OPTIMA Microplate Reader. Inhibitory effect of the test compound on Hoechst 33342 efflux was expressed as the percentage increase of retained Hoechst 33342 in cells.

“Also recorded” adds a separate entry of the source.

Sequence of P-gp (Homo sapiens, UniProt P08183) (P08183 whole entry): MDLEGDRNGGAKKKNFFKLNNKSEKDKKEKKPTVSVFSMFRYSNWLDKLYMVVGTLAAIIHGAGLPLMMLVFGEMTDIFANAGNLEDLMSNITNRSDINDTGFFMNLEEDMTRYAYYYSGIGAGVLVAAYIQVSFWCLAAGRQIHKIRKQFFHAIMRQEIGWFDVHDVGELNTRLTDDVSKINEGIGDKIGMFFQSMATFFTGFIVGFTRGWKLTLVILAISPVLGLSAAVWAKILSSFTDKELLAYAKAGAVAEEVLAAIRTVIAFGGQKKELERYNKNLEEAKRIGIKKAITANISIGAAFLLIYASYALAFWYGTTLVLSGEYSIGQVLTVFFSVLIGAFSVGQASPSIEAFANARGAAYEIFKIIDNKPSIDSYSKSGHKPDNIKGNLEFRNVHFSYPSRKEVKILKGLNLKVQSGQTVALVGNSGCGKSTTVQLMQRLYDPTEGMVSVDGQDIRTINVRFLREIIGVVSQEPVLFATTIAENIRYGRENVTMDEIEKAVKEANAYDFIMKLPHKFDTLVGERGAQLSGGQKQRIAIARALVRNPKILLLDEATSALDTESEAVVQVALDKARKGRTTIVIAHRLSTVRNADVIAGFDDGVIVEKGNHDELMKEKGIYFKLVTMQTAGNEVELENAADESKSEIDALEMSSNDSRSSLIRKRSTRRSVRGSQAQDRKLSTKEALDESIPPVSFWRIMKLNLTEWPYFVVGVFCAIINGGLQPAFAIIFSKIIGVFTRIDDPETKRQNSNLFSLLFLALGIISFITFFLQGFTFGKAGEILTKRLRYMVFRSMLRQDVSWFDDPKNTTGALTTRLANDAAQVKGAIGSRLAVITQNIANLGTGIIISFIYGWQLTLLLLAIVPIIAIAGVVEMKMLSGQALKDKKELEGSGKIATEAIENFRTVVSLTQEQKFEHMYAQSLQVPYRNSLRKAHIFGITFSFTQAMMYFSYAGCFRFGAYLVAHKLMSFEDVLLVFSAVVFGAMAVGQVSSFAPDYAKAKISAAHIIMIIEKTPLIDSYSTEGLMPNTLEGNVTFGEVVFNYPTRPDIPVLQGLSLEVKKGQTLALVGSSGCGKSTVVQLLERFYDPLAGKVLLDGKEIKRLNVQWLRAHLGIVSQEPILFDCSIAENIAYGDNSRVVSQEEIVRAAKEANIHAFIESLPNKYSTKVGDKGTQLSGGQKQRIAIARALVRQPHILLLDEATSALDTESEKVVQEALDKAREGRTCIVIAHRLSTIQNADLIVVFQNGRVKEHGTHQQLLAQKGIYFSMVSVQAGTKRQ

Turning to `COc1ccc(C(=O)O[C@@H]2c3c(ccc4ccc(=O)oc34)OC(C)(C)[C@@H]2OC(=O)c2ccc(OC)c(OC)c2)cc1OC` (racemic) [cis-DMDBK, (±)-3′-O,4′-O-bis(3,4-dimethoxybenzoyl)-cis-khellactone], the Resistant ratio in the data set with K562-DR cells [1] is reported as 0.91. Also, in the data set with K562-DR cells [2], the “Reversing parameter: fold decrease of IC50, verapamil” value is 105.8 ± 51.1 fold; the “Reversing parameter: fold decrease of IC50 of Doxorubicin” value was found to be 18.9 ± 7.9 fold; the “Reversing parameter: fold decrease of IC50 of Puromycin” value is reported as 21.8 ± 3.1 fold; the “Reversing parameter: fold decrease of IC50 of Vinblastine” value came to 75.6 ± 21.3 fold. Also, in the data set with KB V1 cells (KB V1, 2 μM test compound), the “Reversing parameter: fold decrease of IC50, verapamil” value was determined as 6.8 ± 2.9 fold; the “Reversing parameter: fold decrease of IC50 of Doxorubicin” value turned out to be 5.6 ± 2.4 fold; the “Reversing parameter: fold decrease of IC50 of Puromycin” value came out at 15.4 ± 3.3 fold; the “Reversing parameter: fold decrease of IC50 of Vinblastine” value stood at 3.5 ± 1.4 fold. In the data set with KB V1 cells (KB V1, 4 μM test compound), the “Reversing parameter: fold decrease of IC50, verapamil” value is 83.3 ± 35.3 fold; the “Reversing parameter: fold decrease of IC50 of Doxorubicin” value is recorded as 16.1 ± 9.5 fold; the “Reversing parameter: fold decrease of IC50 of Puromycin” value came out at 36.8 ± 16.6 fold; the “Reversing parameter: fold decrease of IC50 of Vinblastine” value was 51.6 ± 11.0 fold. Moreover, the “Change in P-gp (MDR1) expression level” value in the data set on P-gp [3] was “no detectable alteration; also recorded: not observed”. Further, the “Highest increase of cellular Hoechst 33342 fluorescence” value (from here on “Highest increase”) on P-gp [4] (10 μM) was 200%.

Consider `COc1ccc(/C=C/C(=O)O[C@@H]2c3c(ccc4ccc(=O)oc34)OC(C)(C)[C@@H]2OC(=O)/C=C/c2ccc(OC)c(OC)c2)cc1OC` (racemic) [cis-DMDCK, (±)-3′-O,4′-O-bis(3,4-dimethoxycinnamoyl)-cis-khellactone], for which the Resistant ratio in the data set on K562-DR cells [1] was determined as 1.29. In the data set with K562-DR cells [2], the “Reversing parameter: fold decrease of IC50, verapamil” value turned out to be 169.9 ± 39.4 fold; the “Reversing parameter: fold decrease of IC50 of Doxorubicin” value is reported as 28.8 ± 8.9 fold; the “Reversing parameter: fold decrease of IC50 of Puromycin” value is 38.8 ± 8.9 fold; the “Reversing parameter: fold decrease of IC50 of Vinblastine” value came to 138.7 ± 39.6 fold. In addition, in the data set on KB V1 cells (KB V1, 1 μM test compound), the “Reversing parameter: fold decrease of IC50, verapamil” value is reported as 9.0 ± 9.7 fold; the “Reversing parameter: fold decrease of IC50 of Doxorubicin” value is recorded as 8.9 ± 2.3 fold; the “Reversing parameter: fold decrease of IC50 of Puromycin” value is 37.0 ± 14.4 fold; the “Reversing parameter: fold decrease of IC50 of Vinblastine” value came out at 2.3 ± 0.8 fold. Besides, in the data set on KB V1 cells (KB V1, 2 μM test compound), the “Reversing parameter: fold decrease of IC50, verapamil” value is listed as 128.2 ± 53.8 fold; the “Reversing parameter: fold decrease of IC50 of Doxorubicin” value came out at 19.1 ± 11.1 fold; the “Reversing parameter: fold decrease of IC50 of Puromycin” value worked out at 61.4 ± 31.3 fold; the “Reversing parameter: fold decrease of IC50 of Vinblastine” value is on record as 115.0 ± 17.6 fold. For the same compound, in the data set on KB V1 cells (KB V1, 4 μM test compound), the “Reversing parameter: fold decrease of IC50, verapamil” value is reported as 499.8 ± 202.8 fold; the “Reversing parameter: fold decrease of IC50 of Doxorubicin” value is recorded as 50.0 ± 19.1 fold; the “Reversing parameter: fold decrease of IC50 of Puromycin” value was 131.0 ± 7.1 fold; the “Reversing parameter: fold decrease of IC50 of Vinblastine” value is recorded as 331.2 ± 155.4 fold. The “Change in P-gp (MDR1) expression level” value in the data set on P-gp [3] is “no detectable alteration; also recorded: not observed”. For the same compound, on P-gp [4] (5 μM), the “Highest increase” value is recorded as 200%.

As to `COc1ccc(C(=O)O[C@@H]2[C@@H](OC(=O)c3ccc(OC)c(OC)c3)c3c(ccc4ccc(=O)oc34)OC2(C)C)cc1OC` (racemic) [trans-DMDBK, (±)-3′-O,4′-O-bis(3,4-dimethoxybenzoyl)-trans-khellactone], in the data set with K562-DR cells [1], the Resistant ratio is 1.50. Further, in the data set with K562-DR cells [2], the “Reversing parameter: fold decrease of IC50, verapamil” value came to 9.8 ± 2.1 fold; the “Reversing parameter: fold decrease of IC50 of Doxorubicin” value came to 7.0 ± 2.2 fold; the “Reversing parameter: fold decrease of IC50 of Puromycin” value was 6.7 ± 0.4 fold; the “Reversing parameter: fold decrease of IC50 of Vinblastine” value is 11.0 ± 0.6 fold. Also, in the data set with KB V1 cells (KB V1, 4 μM test compound), the “Reversing parameter: fold decrease of IC50, verapamil” value is on record as 2.2 ± 0.4 fold; the “Reversing parameter: fold decrease of IC50 of Doxorubicin” value is on record as 2.7 ± 0.9 fold; the “Reversing parameter: fold decrease of IC50 of Puromycin” value is reported as 8.4 ± 4.2 fold; the “Reversing parameter: fold decrease of IC50 of Vinblastine” value came to 1.4 ± 0.2 fold. The “Change in P-gp (MDR1) expression level” value in the data set on P-gp [3] is recorded as “no detectable alteration; also recorded: not observed”. Also, on P-gp [4] (20 μM), the “Highest increase” value is “about 150%”.

Take `COc1ccc(/C=C/C(=O)O[C@@H]2[C@@H](OC(=O)/C=C/c3ccc(OC)c(OC)c3)c3c(ccc4ccc(=O)oc34)OC2(C)C)cc1OC` (racemic) [trans-DMDCK, (±)-3′-O,4′-O-bis(3,4-dimethoxycinnamoyl)-trans-khellactone]: the Resistant ratio in the data set on K562-DR cells [1] was 1.42. In addition, in the data set on K562-DR cells [2], the “Reversing parameter: fold decrease of IC50, verapamil” value was found to be 27.8 ± 8.7 fold; the “Reversing parameter: fold decrease of IC50 of Doxorubicin” value is 16.1 ± 9.6 fold; the “Reversing parameter: fold decrease of IC50 of Puromycin” value stood at 31.1 ± 16.7 fold; the “Reversing parameter: fold decrease of IC50 of Vinblastine” value amounted to 31.6 ± 5.1 fold. Further, in the data set on KB V1 cells (KB V1, 4 μM test compound), the “Reversing parameter: fold decrease of IC50, verapamil” value is on record as 6.0 ± 3.1 fold and the “Reversing parameter: fold decrease of IC50 of Puromycin” value is on record as 15.3 ± 2.5 fold. In the data set on P-gp [3], the “Change in P-gp (MDR1) expression level” value was “no detectable alteration; also recorded: not observed”. Further, the “Highest increase” value at P-gp [4] (20 μM) was “about 150%”.

(Values after US20090111836A1, “Angular Pyranocoumarins, Process for Preparation and Uses Thereof” (CITY UNIVERSITY OF HONG KONG, priority 2007, published 2009).)
